The text below walks through data of the supplement of paper PMC10307832.

Holding throughout (experiment): relative viability (nuclei count vs DMSO), 5 days (fraction); higher = more cells survive
Compound in assay [1]: C[C@]12O[C@H](C[C@]1(O)CO)n1c3ccccc3c3c4c(c5c6ccccc6n2c5c31)CNC4=O [Lestaurtinib] + O=C(CCCCCCC(=O)Nc1ccccc1)NO [Vorinostat] (partner 1 µM)
The gist of the method:
(§1)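 Dosing by pin tool came one day after lung cancer cell lines were seeded in 1536-well plates, using either one drug or a fixed anchor-drug dose plus five library-drug doses (not always all listed) in √10 steps. After 5 days, nuclei were counted on 4× images. Relative viability is treated-well nuclei count divided by vehicle-well nuclei count, and values are medians of duplicate plates.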

Compound in assay [2]: C1/C(=C\C2=CC=CS2)/C(=O)/C(=C/C3=CC=CS3)/C1 + C[C@]1(O)C[C@@H](c2nc(-c3ccc4ccc(-c5ccccc5)nc4c3)c3c(N)nccn32)C1 [Linsitinib] (partner 1 µM)
The gist of the method: as §1

Compound in the assay “TPCA-1 + Linsitinib”: C1=CC(=CC=C1C2=CC(=C(S2)NC(=O)N)C(=O)N)F [TPCA-1] + C[C@]1(O)C[C@@H](c2nc(-c3ccc4ccc(-c5ccccc5)nc4c3)c3c(N)nccn32)C1 [Linsitinib] (partner 1 µM)
Summed up:
as §1

Compound in the assay “TPCA-1 + Phenformin”: C1=CC(=CC=C1C2=CC(=C(S2)NC(=O)N)C(=O)N)F [TPCA-1] + N=C(N)NC(=N)NCCc1ccccc1 [Phenformin] (partner 250 µM)
Summed up:
as §1

With UMC-11, the relative viability amounted to 0.367 in assay [1] (first compound 0.005 µM); 0.36 in assay [1] (first compound 0.01581 µM); 0.323 in assay [1] (first compound 0.05 µM); 0.182 in assay [1] (first compound 0.1581 µM); 0.118 in assay [1] (first compound 0.5 µM); 1.02 in assay [2] (first compound 0.2 µM). Moreover, the relative viability in assay [2] (first compound 0.6325 µM) was found to be 1.07; in assay [2] (first compound 2 µM), 1.03; in assay [2] (first compound 20 µM) it was 1; with TPCA-1 + Linsitinib (first compound 0.04 µM) it was 1.03; in the assay with TPCA-1 + Linsitinib (first compound 0.1265 µM) it was 1; with TPCA-1 + Linsitinib (first compound 0.4 µM), 1.04. The relative viability with TPCA-1 + Linsitinib (first compound 1.265 µM) turned out to be 0.918; in the assay with TPCA-1 + Linsitinib (first compound 4 µM), 0.615; with TPCA-1 + Phenformin (first compound 0.04 µM), 0.373; in the assay with TPCA-1 + Phenformin (first compound 0.1265 µM), 0.299; in the assay with TPCA-1 + Phenformin (first compound 0.4 µM), 0.36; with TPCA-1 + Phenformin (first compound 1.265 µM), 0.307. Also, the relative viability with TPCA-1 + Phenformin (first compound 4 µM) was found to be 0.171.
